Test results from publication PMC7792611, “The Delta-Specific Opioid Glycopeptide BBI-11008: CNS Penetration and Behavioral Analysis in a Preclinical Model of Levodopa-Induced Dyskinesia” (International Journal of Molecular Sciences, 2020).
Where “and” joins values, the source holds several entries; their conditions need not be identical. Identical values can stand only once. Entries after “also recorded” stand apart in the source; their conditions may differ. Like-named read-outs stand apart in the source and are kept apart here. Non-standard residues stand in square brackets, D forms with d. Residues, ends and D or L forms follow the SMILES beside them. *: point of attachment. βGlc = OC[C@H]1O[C@@H](*)[C@H](O)[C@@H](O)[C@@H]1O; Nle = CCCC[C@H](N)C(=O)O

Key:
human DOR = target: T1, human DOR (Homo sapiens, UniProt P41143); assay: Opioid receptor binding, inhibition of [3H]naltrindole binding to CHO cell membranes; conditions: for % Inhibition at DOR: 0.2 nM [3H]naltrindole
T1 construct: expressed in transfected cells
T1 sequence (P41143 whole entry): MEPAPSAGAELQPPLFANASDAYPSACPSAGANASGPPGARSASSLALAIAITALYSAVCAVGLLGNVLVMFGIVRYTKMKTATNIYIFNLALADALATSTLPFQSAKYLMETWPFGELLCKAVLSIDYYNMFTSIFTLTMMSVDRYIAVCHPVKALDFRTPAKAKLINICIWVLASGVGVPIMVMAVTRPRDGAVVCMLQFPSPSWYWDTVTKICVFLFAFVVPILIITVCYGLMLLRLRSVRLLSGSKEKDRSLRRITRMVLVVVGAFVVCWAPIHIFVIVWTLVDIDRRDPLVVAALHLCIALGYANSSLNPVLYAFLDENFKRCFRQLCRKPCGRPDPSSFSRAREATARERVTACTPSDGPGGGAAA

human MOR = target: T2, human MOR (Homo sapiens, UniProt P35372); assay: Opioid receptor binding, inhibition of [3H]DAMGO binding to CHO cell membranes; conditions: for % Inhibition at MOR: 0.25 nM [3H]DAMGO
T2 construct: expressed in transfected cells
T2 sequence (P35372 whole entry): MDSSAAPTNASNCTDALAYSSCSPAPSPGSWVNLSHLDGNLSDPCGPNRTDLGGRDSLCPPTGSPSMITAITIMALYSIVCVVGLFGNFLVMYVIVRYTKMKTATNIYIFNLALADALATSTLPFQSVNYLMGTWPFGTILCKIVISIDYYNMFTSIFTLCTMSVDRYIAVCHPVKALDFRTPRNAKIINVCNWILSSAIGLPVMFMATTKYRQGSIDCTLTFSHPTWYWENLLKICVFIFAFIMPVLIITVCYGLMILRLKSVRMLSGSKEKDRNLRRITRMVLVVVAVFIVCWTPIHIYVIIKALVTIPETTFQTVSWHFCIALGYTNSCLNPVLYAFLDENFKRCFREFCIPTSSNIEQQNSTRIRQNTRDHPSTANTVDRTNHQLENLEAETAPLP

[1] = test system: L-DOPA-induced dyskinesia (LID) models; conditions: cited from earlier work
tail-withdrawal assay = conditions: mice, intravenous administration; ref Bilsky and Polt, personal communication; cited from earlier work
human KOR = target: T3, human KOR (Homo sapiens, UniProt P41145); assay: Opioid receptor binding, [3H]U69593 binding to CHO cell membranes; conditions: 1 nM [3H]U69593; cells print % values
T3 construct: expressed in transfected cells
T3 sequence (P41145 whole entry): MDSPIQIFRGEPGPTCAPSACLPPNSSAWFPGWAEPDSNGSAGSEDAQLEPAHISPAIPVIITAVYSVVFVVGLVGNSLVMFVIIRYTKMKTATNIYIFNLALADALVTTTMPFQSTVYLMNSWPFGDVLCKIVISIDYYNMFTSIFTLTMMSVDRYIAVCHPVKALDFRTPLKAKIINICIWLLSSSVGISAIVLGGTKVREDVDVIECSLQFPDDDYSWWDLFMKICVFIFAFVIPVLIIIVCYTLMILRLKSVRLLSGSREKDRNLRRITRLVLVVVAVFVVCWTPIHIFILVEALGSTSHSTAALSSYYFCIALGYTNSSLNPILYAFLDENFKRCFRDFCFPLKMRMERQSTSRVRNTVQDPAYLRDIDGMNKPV
Description: Opioid Receptor Binding: Opioid receptor binding assays were performed as previously described. Membranes from CHO cells stably expressing either the human DOR, MOR, or KOR were used in the binding experiments. […] [^3H]U69593 at a concentration of 1 nM was used to measure binding to the KOR. […] BBI-11008 was chosen for further study.

[2] = test system: L-DOPA-induced abnormal involuntary movements in 6-OHDA-lesioned rats; assay: L-DOPA-induced dyskinesia model in unilateral 6-OHDA-lesioned rats, AIMs scoring; format: in vivo, rat; conditions: MK-801 0.3 mg/kg i.p., 25 min prior to L-DOPA
Description: Male Sprague-Dawley rats (250 g; Harlan, Indianapolis, IN, USA), were housed in a temperature and humidity-controlled room with 12 h light/dark cycles with food and water available ad libitum. All animals were treated as approved by the Institutional Animal Care and Use Committee at the University of Arizona (Protocol number: 10-204; amendment approval date: 20 August 2012) and in accordance with the NIH Guidelines for the Care and Use of Laboratory Animals. The number of animals used, and their suffering were minimized.
All surgical procedures were performed as published in our prior work unless otherwise stated. […]
Rats showing ipsiversive rotations were selected and treated daily (i.p.) for 3 weeks with a combination of L-DOPA (7 mg/kg) and benserazide (14 mg/kg, MilliporeSigma). […] Baseline L-DOPA-induced LAO and locomotor AIMs (mean ± SEM) were determined over 3 testing sessions, before testing of the compounds was begun. […]
L-DOPA-induced AIMs were scored by an experimentally blinded investigator according to [57]. […] In order to quantify the severity of the AIMs, rats were observed individually in their standard cages every 20th min between 20 and 180 min after an injection of L-DOPA. […]

[3] = In vivo microdialysis in the dorsolateral striatum with LC-MS; conditions: 10 mg/kg i.p., rat
Description: Adult male Sprague–Dawley rats (Harlan, Indianapolis, IN, USA) weighing between 250 and 350 g were used for all experiments (n = 6). Rats were housed in a temperature and humidity-controlled room with 12 h light/dark cycles with food and water available ad libitum. All animals were treated as approved by the University of Michigan Unit for Laboratory Animal Medicine (Protocol: 08516; approval date: 4 April 2011) and in accordance with the National Institute of Health (NIH) Guidelines for the Care and Use of Laboratory Animals. The number of animals used, and their suffering were minimized.
We performed in vivo microdialysis in the rat DLS and applied LC-MS analytical techniques to quantify brain concentrations of the deltorphin analogue BBI-11008, following systemic treatment, and of endogenous leu-enkephalin levels both before and after treatment. These experiments were performed in awake, freely moving rats, implanted with microdialysis probes in the DLS 24 h prior to the experiments. The animals were fully recovered, their wounds healed, and the probes were fixed in place with dental cement. The details of the microdialysis procedure to detect glycopeptides in the rat striatum has been described in detail in [27], with the following minor modifications: the concentric microdialysis probes were slightly larger at 3 mm, and the microdialysis probes were flushed at a lower flow rate of 0.7 µL/min.

Molecule | % Inhibition at DOR (human DOR; peptide 100 nM) [%] | % Inhibition at DOR (human DOR; peptide 1 µM) [%] | % Inhibition at MOR (human MOR; peptide 100 nM) [%] | % Inhibition at MOR (human MOR; peptide 1 µM) [%] | further results
H2N-YmFHLMT-(β-D-Glc) [BBI-11003] | 75 | 83 | 57 | 89 | –
CTAP | – | – | – | – | effect on LID ([1]; highly-selective MOR antagonists): did not reduce LID
H2N-YaFHLA-S(β-D-Glc) [BBI-11002] | 55 | 77 | 82 | 97 | –
CCN(CC)C(=O)c1ccc([C@H](c2cccc(O)c2)N2C[C@@H](C)N(Cc3cccc(F)c3)C[C@@H]2C)cc1 [DPI-289] | – | – | – | – | effect on LID ([1]; rodent and non-human primate LID models): anti-dyskinetic
YaFEVVG-CONH2 [deltorphin] | – | – | – | – | antinociceptive effect in the tail-withdrawal assay (tail-withdrawal assay): lacks this activity
CCCC[C@H](NC(=O)[C@H](CCC(=O)O)NC(=O)[C@H](Cc1ccccc1)NC(=O)[C@@H](C)NC(=O)[C@@H](N)Cc1ccc(O)cc1)C(=O)N[C@@H](CCCC)C(=O)N[C@H](C(N)=O)[C@@H](C)O [BBI-11009, H2N-YaFE-Nle-Nle-T] (H-Y[dA]FE[Nle][Nle]T-NH2) | – | – | – | – | % Inhibition at KOR (human KOR): 3.7%; Ki (human DOR): 11 nM; Ki (human MOR): 510 nM
Lactomorphin [MMP-2200] | – | – | – | – | effect on MK-801-induced pro-Parkinsonian activity ([1]; co-administration with MK-801, rodent LID model): attenuated the pro-Parkinsonian activity of MK-801
C[C@]12N[C@H](Cc3ccccc31)c1ccccc12 [MK-801, Dizocilpine] | – | – | – | – | effect on L-DOPA-induced LAO AIMs [2]: reduced levodopa-induced LAO AIMs; also recorded: does reduce LAO-AIMs; also recorded: efficiently blocked LAO AIMs; ipsiversive pro-Parkinsonian locomotor activity [2]: worsened PD symptoms; also recorded: induces ipsiversive pro-Parkinsonian locomotor activity; also recorded: caused ipsiversive turns
Oc1ccc2c3c1O[C@H]1[C@@H](O)CC[C@@]4(O)[C@@H](C2)N(CC2CCC2)CC[C@]314 [nalbuphine] | – | – | – | – | effect on LID ([1]; dyskinetic non-human LID primates): reduce LID
CNC1(c2ccccc2Cl)CCCCC1=O (stereo not drawn) [ketamine] | – | – | – | – | effect on LID and Parkinsonism ([1]; sub-anesthetic treatment, rodent models): anti-dyskinetic and anti-Parkinsonian
CCCC[C@H](NC(=O)[C@H](CCC(=O)O)NC(=O)[C@H](Cc1ccccc1)NC(=O)[C@@H](C)NC(=O)[C@@H](N)Cc1ccc(O)cc1)C(=O)N[C@@H](CCCC)C(=O)N[C@H](C(N)=O)[C@@H](C)O[C@@H]1O[C@H](CO)[C@@H](O)[C@H](O)[C@H]1O [BBI-11008, H2N-YaFE-Nle-Nle-T-(β-D-Glc)] (H-Y[dA]FE[Nle][Nle]T(βGlc)-NH2) | – | – | – | – | peak BBI-11008 level relative to baseline endogenous leu-enkephalin [3]: 10 fold; peak BBI-11008 concentration in dorsolateral striatum dialysate ([3]; 10 min post-injection): 150 pM and > 150 pM; level at time molar at 1 h ([3]; male, Sprague-Dawley, in vivo, ip, 10 mg/kg, 60 min, read-out: striatal BBI-11008 concentration at 60 min post-injection (mean)): ~0.037 nM
H2N-YaFHLAT-(β-D-Glc) [BBI-11004] | 61 | 76 | 88 | 98 | –
H2N-YmFHLM-S(β-D-Glc) [BBI-11001] | 72 | 84 | 63 | 89 | –
